Data taken from ChEMBL document CHEMBL4706583, “2-Anilinoquinoline based arylamides as broad spectrum anticancer agents with B-RAF/C-RAF kinase inhibitory effects: Design, synthesis, in vitro cell-based and oncogenic kinase assessments” (Eur J Med Chem, 2020).
pIC50: −log10 of the molar value. Active and inactive are the calls of the source. No cut-off for these calls is given here.

Tests used:
[1] = system: Panel NCI-60 (60 carcinoma cell lines); assay: Growth inhibition of human Panel NCI-60 (60 carcinoma cell lines) cells at 10 uM measured after 48 hrs by SRB assay relative to control; format: functional; details: read-out: GI
HT-29 = assay: Growth inhibition of human HT-29 cells at 10 uM measured after 48 hrs by SRB assay relative to control; format: functional; details: read-out: GI
[2] = target: RAF proto-oncogene serine/threonine-protein kinase (Homo sapiens, UniProt P04049); assay: Inhibition of human CRAF using MEK1 (K97R) as substrate in presence of [gamma-33P]ATP by scintillation counting method
[3] = target: Serine/threonine-protein kinase B-raf (Homo sapiens, UniProt P15056); assay: Inhibition of human BRAF using MEK1 (K97R) as substrate in presence of [gamma-33P]ATP by scintillation counting method
[4] = target: Serine/threonine-protein kinase B-raf (Homo sapiens, UniProt P15056, V600E); assay: Inhibition of human BRAF V600E mutant using MEK1 (K97R) as substrate in presence of [gamma-33P]ATP by scintillation counting method
Homo sapiens = species: Homo sapiens; assay: Selectivity ratio of IC50 for inhibition of human BRAF V600E mutant to IC50 for inhibition of human CRAF
CCRF-CEM = assay: Growth inhibition of human CCRF-CEM cells at 10 uM measured after 48 hrs by SRB assay relative to control; format: functional; details: read-out: GI
K562 = assay: Growth inhibition of human K562 cells at 10 uM measured after 48 hrs by SRB assay relative to control; format: functional; details: read-out: GI
MOLT-4 = assay: Growth inhibition of human MOLT-4 cells at 10 uM measured after 48 hrs by SRB assay relative to control; format: functional; details: read-out: GI
RPMI-8226 = assay: Growth inhibition of human RPMI-8226 cells at 10 uM measured after 48 hrs by SRB assay relative to control; format: functional; details: read-out: GI
SR = assay: Growth inhibition of human SR cells at 10 uM measured after 48 hrs by SRB assay relative to control; format: functional; details: read-out: GI
A549 = assay: Growth inhibition of human A549 cells at 10 uM measured after 48 hrs by SRB assay relative to control; format: functional; details: read-out: GI
HOP-92 = assay: Growth inhibition of human HOP-92 cells at 10 uM measured after 48 hrs by SRB assay relative to control; format: functional; details: read-out: GI
NCI-H522 = assay: Growth inhibition of human NCI-H522 cells at 10 uM measured after 48 hrs by SRB assay relative to control; format: functional; details: read-out: GI
HCT-116 = assay: Growth inhibition of human HCT-116 cells at 10 uM measured after 48 hrs by SRB assay relative to control; format: functional; details: read-out: GI
786-0 = assay: Growth inhibition of human 786-0 cells at 10 uM measured after 48 hrs by SRB assay relative to control; format: functional; details: read-out: GI
A498 = assay: Growth inhibition of human A498 cells at 10 uM measured after 48 hrs by SRB assay relative to control; format: functional; details: read-out: GI
UO-31 = assay: Growth inhibition of human UO-31 cells at 10 uM measured after 48 hrs by SRB assay relative to control; format: functional; details: read-out: GI
PC-3 = assay: Growth inhibition of human PC-3 cells at 10 uM measured after 48 hrs by SRB assay relative to control; format: functional; details: read-out: GI
T47D = assay: Growth inhibition of human T47D cells at 10 uM measured after 48 hrs by SRB assay relative to control; format: functional; details: read-out: GI
Sus scrofa = species: Sus scrofa; assay: Induction of porcine brain tubulin polymerization at 10 uM measured at 30 secs interval for 60 mins by fluorescence assay; format: tissue-based

Chain of Serine/threonine-protein kinase B-raf (Homo sapiens, UniProt P15056, V600E) (P15056 2-766 V600E limits assumed): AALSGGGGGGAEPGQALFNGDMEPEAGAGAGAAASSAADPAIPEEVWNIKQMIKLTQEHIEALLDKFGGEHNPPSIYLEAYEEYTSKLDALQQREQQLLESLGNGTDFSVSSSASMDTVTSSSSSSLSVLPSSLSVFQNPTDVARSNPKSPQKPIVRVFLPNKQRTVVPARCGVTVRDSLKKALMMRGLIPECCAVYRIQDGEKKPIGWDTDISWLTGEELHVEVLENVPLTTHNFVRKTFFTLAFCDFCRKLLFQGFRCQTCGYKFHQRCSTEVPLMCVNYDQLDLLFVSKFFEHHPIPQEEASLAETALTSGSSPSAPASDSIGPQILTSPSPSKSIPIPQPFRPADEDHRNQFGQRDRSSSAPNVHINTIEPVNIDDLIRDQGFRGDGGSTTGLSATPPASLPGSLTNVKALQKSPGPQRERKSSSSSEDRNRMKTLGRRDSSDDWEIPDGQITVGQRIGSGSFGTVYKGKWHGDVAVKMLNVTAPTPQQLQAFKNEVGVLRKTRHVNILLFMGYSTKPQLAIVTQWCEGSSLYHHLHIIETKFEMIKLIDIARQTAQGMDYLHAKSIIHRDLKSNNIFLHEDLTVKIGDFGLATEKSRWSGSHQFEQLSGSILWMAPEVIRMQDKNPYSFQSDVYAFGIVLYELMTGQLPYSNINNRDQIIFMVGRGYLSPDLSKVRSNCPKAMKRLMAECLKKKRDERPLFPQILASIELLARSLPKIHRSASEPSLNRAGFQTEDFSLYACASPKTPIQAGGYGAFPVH
Chain of RAF proto-oncogene serine/threonine-protein kinase (P04049 whole entry): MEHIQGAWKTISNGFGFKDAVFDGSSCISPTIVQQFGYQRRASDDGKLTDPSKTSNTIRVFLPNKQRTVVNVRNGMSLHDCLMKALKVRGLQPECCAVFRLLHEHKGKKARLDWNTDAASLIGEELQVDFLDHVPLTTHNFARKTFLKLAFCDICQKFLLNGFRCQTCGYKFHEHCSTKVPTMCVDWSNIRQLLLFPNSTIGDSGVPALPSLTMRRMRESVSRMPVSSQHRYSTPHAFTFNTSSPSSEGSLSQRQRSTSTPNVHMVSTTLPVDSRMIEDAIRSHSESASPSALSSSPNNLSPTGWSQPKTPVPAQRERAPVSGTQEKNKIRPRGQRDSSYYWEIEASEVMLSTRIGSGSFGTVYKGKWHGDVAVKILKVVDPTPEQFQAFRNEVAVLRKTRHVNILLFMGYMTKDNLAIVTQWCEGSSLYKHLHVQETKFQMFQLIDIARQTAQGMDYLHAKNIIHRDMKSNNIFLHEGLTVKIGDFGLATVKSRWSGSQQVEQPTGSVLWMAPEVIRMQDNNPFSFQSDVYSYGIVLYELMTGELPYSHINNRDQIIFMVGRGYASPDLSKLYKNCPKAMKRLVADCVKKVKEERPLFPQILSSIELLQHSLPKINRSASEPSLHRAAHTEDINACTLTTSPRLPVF
Chain of Serine/threonine-protein kinase B-raf (Homo sapiens, UniProt P15056) (P15056 whole entry): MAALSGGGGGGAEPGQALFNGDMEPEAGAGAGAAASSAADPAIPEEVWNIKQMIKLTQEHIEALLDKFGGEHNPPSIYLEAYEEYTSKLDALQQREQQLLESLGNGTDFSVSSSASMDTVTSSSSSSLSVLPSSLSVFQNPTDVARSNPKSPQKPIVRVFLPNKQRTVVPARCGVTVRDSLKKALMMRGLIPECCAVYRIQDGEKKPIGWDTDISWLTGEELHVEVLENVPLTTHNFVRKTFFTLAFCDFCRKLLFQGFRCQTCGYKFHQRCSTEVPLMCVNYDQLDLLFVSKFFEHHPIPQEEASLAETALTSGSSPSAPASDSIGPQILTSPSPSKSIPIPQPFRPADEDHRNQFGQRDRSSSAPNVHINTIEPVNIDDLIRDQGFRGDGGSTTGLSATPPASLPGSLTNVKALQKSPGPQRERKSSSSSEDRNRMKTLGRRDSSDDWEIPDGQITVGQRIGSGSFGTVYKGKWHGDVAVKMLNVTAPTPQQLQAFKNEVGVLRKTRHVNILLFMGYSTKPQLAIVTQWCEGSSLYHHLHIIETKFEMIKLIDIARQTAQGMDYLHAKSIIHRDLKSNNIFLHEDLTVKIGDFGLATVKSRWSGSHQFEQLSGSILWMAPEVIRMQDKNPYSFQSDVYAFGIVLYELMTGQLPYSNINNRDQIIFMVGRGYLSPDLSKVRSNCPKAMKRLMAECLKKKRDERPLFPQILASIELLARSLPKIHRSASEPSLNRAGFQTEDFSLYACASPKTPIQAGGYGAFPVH

| pIC50 [2] | pIC50 [3] | pIC50 [4] | SMILES | inhibition of growth at 10 µM [1] | inhibition of growth at 10 µM (HT-29) | inhibition of growth at 10 µM (CCRF-CEM) | inhibition of growth at 10 µM (K562) | inhibition of growth at 10 µM (MOLT-4) | inhibition of growth at 10 µM (RPMI-8226) | inhibition of growth at 10 µM (SR) | inhibition of growth at 10 µM (A549) | inhibition of growth at 10 µM (HOP-92) | inhibition of growth at 10 µM (NCI-H522) | inhibition of growth at 10 µM (HCT-116) | inhibition of growth at 10 µM (786-0) | inhibition of growth at 10 µM (A498) | inhibition of growth at 10 µM (UO-31) | inhibition of growth at 10 µM (PC-3) | inhibition of growth at 10 µM (T47D) | other results |
| --- | --- | --- | --- | --- | --- | --- | --- | --- | --- | --- | --- | --- | --- | --- | --- | --- | --- | --- | --- | --- |
| 5.84 | 4.39 | 5.34 | COc1cccc2nc(Nc3cccc(NC(=O)c4ccc(N5CCOCC5)c(C(F)(F)F)c4)c3)ccc12 | 59% | 87.2% |  |  |  |  |  |  |  |  |  |  |  |  |  |  | Ratio IC50 (Homo sapiens): 2 |
|  |  |  | COc1cccc2nc(Nc3cccc(NC(=O)c4ccc5c(c4)OCCO5)c3)ccc12 | 17.8% | < 20% | 33.4% | 67.8% | 75.2% | 39.7% | 56.7% | < 20% | < 20% | < 20% | 32.5% | 48.3% | 26.2% | < 20% | 32.1% | 46% |  |
| 6.21 | 5.23 | 5.83 | COc1cccc2nc(Nc3cccc(NC(=O)c4cc(N5CCOCC5)cc(C(F)(F)F)c4)c3)ccc12 | 38.3% |  |  |  |  |  |  |  |  |  |  |  |  |  |  |  | Ratio IC50 (Homo sapiens): 2 |
|  |  |  | CC(=O)O[C@H]1C(=O)[C@@]2(C)[C@H]([C@H](OC(=O)c3ccccc3)[C@]3(O)C[C@H](OC(=O)[C@H](O)[C@@H](NC(=O)c4ccccc4)c4ccccc4)C(C)=C1C3(C)C)[C@]1(OC(C)=O)CO[C@@H]1C[C@@H]2O |  |  |  |  |  |  |  |  |  |  |  |  |  |  |  |  | Activity (Sus scrofa): Active |
|  |  |  | COc1cccc2nc(Nc3cccc(NC(=O)c4ccc(Cl)c(C(F)(F)F)c4)c3)ccc12 | 12.9% | < 20% | 32.9% | 56.8% | 54.8% | 31.8% | 48% | < 20% | 21.5% | 27.4% | < 20% | < 20% | 27.5% | 37.6% | 50.3% | 21.3% |  |
|  |  |  | COc1cccc2nc(Nc3cccc(NC(=O)c4cccc(Cl)n4)c3)ccc12 | 4.88% | < 20% | < 20% | < 20% | 23.3% | < 20% | < 20% | < 20% | < 20% | < 20% | < 20% | < 20% | 32.4% | < 20% | 20.6% | < 20% |  |
| 5.32 | < 4.00 | 5.02 | COc1cccc2nc(Nc3cccc(NC(=O)c4cc(C(F)(F)F)cc(C(F)(F)F)c4)c3)ccc12 | 13.6% | < 20% | 34.4% | 77.3% | 65.2% | 41.9% | 57.4% | 48% | 67.5% | 23.5% | < 20% | < 20% | 28.6% | 28.2% | 62.7% | < 20% |  |
| 6.38 | 5.03 | 5.96 | COc1cccc2nc(Nc3cccc(NC(=O)c4cc(-n5cnc(C)c5)cc(C(F)(F)F)c4)c3)ccc12 | 32.6% |  |  |  |  |  |  |  |  |  |  |  |  |  |  |  | Ratio IC50 (Homo sapiens): 2 |
|  |  |  | COc1cccc2nc(Nc3ccc(NC(=O)c4ccc5c(c4)OCCO5)cc3)ccc12 | -1.17% | < 20% | < 20% | < 20% | < 20% | < 20% | < 20% | < 20% | < 20% | < 20% | < 20% | < 20% | < 20% | < 20% | < 20% | < 20% |  |
|  |  |  | COc1cccc2nc(Nc3ccc(NC(=O)c4ccc(Cl)c(C(F)(F)F)c4)cc3)ccc12 | 6.32% | 21.8% | < 20% | 47.5% | 27.6% | < 20% | < 20% | < 20% | 32% | < 20% | < 20% | < 20% | 22.6% | < 20% | < 20% | < 20% |  |
|  |  |  | COc1cccc2nc(Nc3cccc(NC(=O)c4ccc5ncccc5c4)c3)ccc12 | 28.6% | 42.4% | 36.9% | 61.1% | 64.2% | 94.6% | 55.9% | 20.9% | 48.5% | < 20% | 53.3% | 51.4% | < 20% | 22.9% | 56.2% | 58% |  |
